# Experimental data: ChEMBL document CHEMBL1201862, “PubChem BioAssay data set” (2004)
# Calls of active or inactive are those of the source.
# Legend:
# Bcl-2-like protein 10 = biological target: T1, Bcl-2-like protein 10 (Homo sapiens, UniProt Q9HD36); test: Biochemical TR3 FP assay of Bcl-B inhibitor potency, EC50 (AID 1243); format: functional
# T1 sequence (Q9HD36 whole entry): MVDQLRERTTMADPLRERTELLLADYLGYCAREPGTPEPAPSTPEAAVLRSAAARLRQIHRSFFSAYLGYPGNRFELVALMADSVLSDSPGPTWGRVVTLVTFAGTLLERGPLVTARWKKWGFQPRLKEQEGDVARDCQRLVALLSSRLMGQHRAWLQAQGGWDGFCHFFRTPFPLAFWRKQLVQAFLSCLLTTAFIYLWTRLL
# Estrogen receptor beta = Estrogen receptor beta (Homo sapiens, UniProt Q92731);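 also: recombinant ER-beta bound to coactivator SRC1 peptide in presence of estradiol agonist; inhibitors block coactivator peptide binding and lower the FRET signal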
# Chain of Estrogen receptor beta (Q92731 whole entry): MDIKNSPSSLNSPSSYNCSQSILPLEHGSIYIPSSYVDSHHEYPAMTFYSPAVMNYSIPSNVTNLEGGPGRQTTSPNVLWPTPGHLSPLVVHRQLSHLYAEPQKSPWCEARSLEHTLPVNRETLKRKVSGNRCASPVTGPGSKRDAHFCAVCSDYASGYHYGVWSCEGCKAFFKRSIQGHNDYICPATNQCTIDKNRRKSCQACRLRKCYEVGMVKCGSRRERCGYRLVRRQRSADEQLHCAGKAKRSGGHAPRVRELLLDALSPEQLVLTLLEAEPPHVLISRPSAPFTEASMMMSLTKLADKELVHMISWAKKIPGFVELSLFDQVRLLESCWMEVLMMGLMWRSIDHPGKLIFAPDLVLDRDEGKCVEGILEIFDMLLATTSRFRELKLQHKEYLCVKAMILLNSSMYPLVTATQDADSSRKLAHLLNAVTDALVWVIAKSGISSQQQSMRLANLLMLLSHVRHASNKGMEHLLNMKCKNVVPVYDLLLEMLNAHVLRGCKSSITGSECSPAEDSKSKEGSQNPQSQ
# [1] = biological target: E3 ubiquitin-protein ligase Mdm2 (Homo sapiens, UniProt Q00987); test: enhancers of MDM2-luciferase reporter signal, concentration-effect titration, project on inhibitors of MDM2 ubiquitin ligase, cellular assay, luminescent readout, 384-well plate format (AID 1394); format: functional;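 also: MDM2 E3 inhibitors raise luminescence so EC50 is for signal enhancement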
# Chain of E3 ubiquitin-protein ligase Mdm2 (Q00987 whole entry): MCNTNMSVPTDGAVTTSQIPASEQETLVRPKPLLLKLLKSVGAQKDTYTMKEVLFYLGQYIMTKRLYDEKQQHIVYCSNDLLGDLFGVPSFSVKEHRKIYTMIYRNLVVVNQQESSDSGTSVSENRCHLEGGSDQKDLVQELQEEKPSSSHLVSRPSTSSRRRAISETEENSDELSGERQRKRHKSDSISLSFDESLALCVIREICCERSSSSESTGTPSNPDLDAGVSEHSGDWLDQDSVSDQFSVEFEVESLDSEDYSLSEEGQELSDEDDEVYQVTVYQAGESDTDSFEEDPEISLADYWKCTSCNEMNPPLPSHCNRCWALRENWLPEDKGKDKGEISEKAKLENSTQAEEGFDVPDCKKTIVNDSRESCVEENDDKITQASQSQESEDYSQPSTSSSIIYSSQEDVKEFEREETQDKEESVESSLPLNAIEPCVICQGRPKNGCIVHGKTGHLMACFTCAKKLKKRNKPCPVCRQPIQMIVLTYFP
# Large T antigen = Large T antigen (Simian virus 40, UniProt P03070); format: functional, Betapolyomavirus macacae;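 also: Confirmatory-stage PubChem screen for compounds that inhibit SV40 T antigen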
# Chain of Large T antigen (P03070 whole entry): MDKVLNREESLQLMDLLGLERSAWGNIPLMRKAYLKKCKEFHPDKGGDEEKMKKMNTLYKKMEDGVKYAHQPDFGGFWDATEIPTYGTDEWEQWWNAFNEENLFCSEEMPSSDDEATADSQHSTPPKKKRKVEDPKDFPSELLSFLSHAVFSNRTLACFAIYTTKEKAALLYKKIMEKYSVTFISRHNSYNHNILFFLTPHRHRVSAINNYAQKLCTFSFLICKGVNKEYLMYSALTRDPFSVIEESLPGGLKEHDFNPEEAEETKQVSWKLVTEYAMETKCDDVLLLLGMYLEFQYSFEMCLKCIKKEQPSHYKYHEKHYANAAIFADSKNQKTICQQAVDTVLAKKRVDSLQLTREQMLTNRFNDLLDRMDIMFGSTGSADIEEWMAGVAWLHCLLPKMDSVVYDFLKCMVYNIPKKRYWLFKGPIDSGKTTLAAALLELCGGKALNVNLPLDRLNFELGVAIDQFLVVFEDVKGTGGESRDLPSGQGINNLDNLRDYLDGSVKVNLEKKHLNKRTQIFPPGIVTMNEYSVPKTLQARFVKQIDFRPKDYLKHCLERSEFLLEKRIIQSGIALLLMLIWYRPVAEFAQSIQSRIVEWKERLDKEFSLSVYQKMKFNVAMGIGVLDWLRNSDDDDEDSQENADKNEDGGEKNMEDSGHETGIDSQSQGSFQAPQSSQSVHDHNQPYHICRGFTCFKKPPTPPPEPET
# [2] = biological target: Induced myeloid leukemia cell differentiation protein Mcl-1 (Homo sapiens, UniProt Q07820); test: MCL1-BIM BH3 interaction inhibitors, dose response, biochemical, fluorescence polarization, BIM-BH3 peptide, 1536-well (AID 2217)
# Chain of Induced myeloid leukemia cell differentiation protein Mcl-1 (Q07820 whole entry): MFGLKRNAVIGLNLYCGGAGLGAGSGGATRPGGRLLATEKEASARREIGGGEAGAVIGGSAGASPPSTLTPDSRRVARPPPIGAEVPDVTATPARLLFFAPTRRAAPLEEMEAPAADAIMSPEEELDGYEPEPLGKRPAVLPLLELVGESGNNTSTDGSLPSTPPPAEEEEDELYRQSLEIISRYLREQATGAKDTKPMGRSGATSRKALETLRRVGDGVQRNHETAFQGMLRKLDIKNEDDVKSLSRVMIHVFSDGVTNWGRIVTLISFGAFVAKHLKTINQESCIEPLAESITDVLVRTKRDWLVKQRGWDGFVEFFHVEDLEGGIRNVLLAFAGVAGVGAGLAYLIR
# Bcl-2-like protein 1 = Bcl-2-like protein 1 (Homo sapiens, UniProt Q07817); test: BCL-XL inhibitors, dose response, selectivity assay for MCL1 inhibitor project, biochemical, fluorescence polarization, 1536-well (AID 2218)
# Chain of Bcl-2-like protein 1 (Q07817 whole entry): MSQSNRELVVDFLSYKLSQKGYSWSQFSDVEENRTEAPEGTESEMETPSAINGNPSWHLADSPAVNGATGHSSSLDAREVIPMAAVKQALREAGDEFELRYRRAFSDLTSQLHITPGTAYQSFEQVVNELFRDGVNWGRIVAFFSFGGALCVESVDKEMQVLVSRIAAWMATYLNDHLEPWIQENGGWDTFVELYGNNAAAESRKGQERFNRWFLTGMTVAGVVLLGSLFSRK
# [3] = biological target: T2, E3 ubiquitin-protein ligase XIAP (Homo sapiens, UniProt P98170); test: Counter Screen using XIAP-Bir3 for Chemical Antagonists of Bir1/2 domains of IAP-family anti-apoptotic proteins. [Related pubchem assays (depositor defined):AID1018, AID1449, AID1514, AID1638, AID1749, AID1750, AID488957, AID488963]
# T2 sequence (P98170 whole entry): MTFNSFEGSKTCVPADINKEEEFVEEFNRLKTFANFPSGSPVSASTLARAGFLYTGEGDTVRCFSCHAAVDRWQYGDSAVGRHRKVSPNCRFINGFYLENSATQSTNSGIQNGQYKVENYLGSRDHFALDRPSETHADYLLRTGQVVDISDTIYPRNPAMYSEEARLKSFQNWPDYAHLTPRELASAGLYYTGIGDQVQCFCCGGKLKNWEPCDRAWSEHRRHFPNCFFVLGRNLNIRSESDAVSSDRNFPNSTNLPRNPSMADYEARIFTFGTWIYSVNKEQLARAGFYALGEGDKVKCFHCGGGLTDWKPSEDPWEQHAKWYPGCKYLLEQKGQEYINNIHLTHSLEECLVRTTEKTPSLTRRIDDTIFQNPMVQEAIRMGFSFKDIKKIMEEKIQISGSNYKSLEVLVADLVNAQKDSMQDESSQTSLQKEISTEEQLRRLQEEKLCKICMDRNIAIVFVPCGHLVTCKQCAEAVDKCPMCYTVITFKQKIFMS
# [4] = biological target: T2, E3 ubiquitin-protein ligase XIAP; test: XIAP antagonists, biochemical, IAP family, fluorescence polarization (AID 1018); format: functional
# [5] = Luminescence Cell-Based Dose Response to Identify Activators of 5'UTR Stem-Loop Driven Prion Protein mRNA Translation in H4-C Neuroglioblastoma Cells. [Related pubchem assays: 1829 (Project Summary), 1814 (Primary HTS)]; format: functional
# [6] = Luminescence Cell-Based Dose Response HTS to Identify Activators of Luciferase Translation or Activity in H4 […] Cells. [Related pubchem assays: 1829 (Project Summary), 1814 (Primary HTS)]; format: functional
# H4 = test: Luminescence Cell-Based Dose Response HTS to Identify Activators of 5'UTR Stem-Loop Driven Prion Protein mRNA Translation in H4 Neuroglioblastoma Cells. [Related pubchem assays: 1829 (Project Summary), 1814 (Primary HTS)]; format: functional; settings: Homo sapiens
# [7] = Luminescence Cell-Based Dose Response to Identify Activators of Luciferase Translation or Activity in H4-C Neuroglioblastoma Cells. [Related pubchem assays: 1829 (Project Summary), 1814 (Primary HTS)]; format: functional
# [8] = Luminescence Cell-Based Dose Confirmation to Identify Activators of 5'UTR Stem-Loop Driven Alpha-Synuclein mRNA Translation in H4 Neuroglioblastoma Cells. [Related pubchem assays: 1829 (Project Summary), 1814 (Primary HTS)]; format: functional
# Aminopeptidase N = biological target: T3, Aminopeptidase N (Plasmodium falciparum FcB1/Columbia, UniProt O96935); test: P. falciparum M1AAP inhibitors, biochemical, fluorogenic H-Leu-NHMec substrate, 1536-well (AID 1445); set-up: species or system Plasmodium falciparum 3D7, 3D7
# T3 sequence (O96935 whole entry): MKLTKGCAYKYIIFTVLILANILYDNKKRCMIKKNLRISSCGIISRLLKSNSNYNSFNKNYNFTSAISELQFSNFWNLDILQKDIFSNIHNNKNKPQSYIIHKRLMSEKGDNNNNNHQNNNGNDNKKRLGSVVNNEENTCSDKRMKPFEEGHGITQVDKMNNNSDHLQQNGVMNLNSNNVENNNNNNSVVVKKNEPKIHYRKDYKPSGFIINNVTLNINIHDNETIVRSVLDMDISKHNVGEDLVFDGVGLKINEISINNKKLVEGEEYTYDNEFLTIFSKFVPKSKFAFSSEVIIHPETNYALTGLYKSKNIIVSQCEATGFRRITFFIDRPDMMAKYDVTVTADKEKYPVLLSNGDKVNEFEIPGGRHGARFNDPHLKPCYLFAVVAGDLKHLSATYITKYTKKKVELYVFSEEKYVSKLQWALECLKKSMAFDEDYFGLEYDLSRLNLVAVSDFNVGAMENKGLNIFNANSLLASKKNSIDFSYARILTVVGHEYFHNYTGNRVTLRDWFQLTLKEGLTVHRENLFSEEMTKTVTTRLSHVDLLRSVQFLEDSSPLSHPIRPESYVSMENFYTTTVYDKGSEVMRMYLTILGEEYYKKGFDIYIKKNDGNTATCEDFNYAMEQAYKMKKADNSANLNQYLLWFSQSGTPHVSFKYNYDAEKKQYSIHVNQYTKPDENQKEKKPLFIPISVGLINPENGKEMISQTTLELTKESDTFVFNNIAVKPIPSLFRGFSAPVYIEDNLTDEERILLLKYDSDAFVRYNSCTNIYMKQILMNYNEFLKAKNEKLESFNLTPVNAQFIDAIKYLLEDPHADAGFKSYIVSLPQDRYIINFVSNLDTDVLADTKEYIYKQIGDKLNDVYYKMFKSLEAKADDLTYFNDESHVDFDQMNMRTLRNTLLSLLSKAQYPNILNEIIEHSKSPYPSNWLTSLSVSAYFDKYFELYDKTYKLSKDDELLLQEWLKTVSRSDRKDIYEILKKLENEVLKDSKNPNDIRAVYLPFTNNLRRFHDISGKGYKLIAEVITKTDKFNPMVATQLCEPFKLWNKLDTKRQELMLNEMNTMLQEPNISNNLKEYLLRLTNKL
# [9] = inhibitors of Bluetongue virus cytopathic effect, confirmation, arbovirus, BSR cells (AID 1250); format: functional;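 also: protection from viral cytopathic effect measured as cell viability by ATP luminescence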
structure (smiles),measurement,setting,value
C(=N\c1ccc(/N=C/c2ccccn2)cc1)/c1ccccn1,EC50,Bcl-2-like protein 10,4.39 µM (active)
CN(C1CCCCC1)S(=O)(=O)c1ccc(S(=O)(=O)N2CCN(CCC#N)CC2)cc1,IC50,Estrogen receptor beta,> 50 µM (not active)
Cc1cc(NC(=O)CSc2nc(C(C)C)nc3c2c(=O)n(C)c(=O)n3C)no1,EC50,[1],12.3 µM (not active)
O=C(O)C1Nc2ccc(OC(F)(F)F)cc2C2C=CCC12 (configuration not stated),IC50,Large T antigen,12.7 µM (active)
same,IC50,[2],8.63 µM (active)
same,IC50,Bcl-2-like protein 1,60.6 µM (not active)
O=c1nc(NCc2ccco2)sc2ncccc12,IC50,[3],> 100 µM (inactive)
same,IC50,[4],> 100 µM (not active)
O=C(NC1=NCCS1)c1ccc(Cl)cc1,EC50,[5],0.744 µM (active)
same,EC50,[6],< 0.1 µM (inconclusive)
same,EC50,H4,101 µM (active)
same,EC50,[7],0.401 µM (active)
same,EC50,[8],0.24 µM (active)
COc1ccccc1Cn1c(=O)c2ccccc2n2c(SCC(=O)N3CCCCC3)nnc12,IC50,[3],> 100 µM (inactive)
same,IC50,[4],> 100 µM (not active)
O=C(Nc1scc(-c2cccs2)c1C(=O)O)c1cccs1,IC50,Aminopeptidase N,49.2 µM (active)
same,IC50,[9],24 µM (active)
